Data as given in patent publication US6911454B1, “Method for potentiating primary drugs in treating multidrug resistant disease” (priority 1989, dated 2005).
Like-named read-outs stand apart in the source and are kept apart here. Blank lines part the entries; values can stand above or below the compound they belong to.

Experiments:
[1] = test system: CQ-resistant (W-2) strain of P. falciparum; test: 3H-adenosine incorporation, chloroquine-resistant P. falciparum; type: cell-based; details: for Ratio (S/R): IC50 against sensitive strain divided by IC50 for resistant strain
Method: (§1) Chloroquine and qinghaosu are commonly used antimalarial drugs.
(§2) The dose (IC50) of each drug or each drug combination required to effect a 50% inhibition in the malarial activity of each strain was determined by establishing a dose response curve for each.
(§3) FCMSU1/Sudan strain and cloned Indochina (W-2) strain of P. falciparum were used. […] The two strains of the parasite were cultured according to the candle jar method of Trager and Jensen, Science, Vol. 193, pages 673-675 (1976). In a given experiment, four-day-old Petri dish cultures (approximately 10% parasitemia) were diluted with medium containing an amount of noninfected type A human erythrocytes to obtain a culture with a final hematocrit of 1.5% and parasitemia of 0.5-1.0%. The resulting culture was ready for addition to microtitration plates with ninety-six flat-bottom wells.
(§4) The testing procedure used was similar to that described by Desjardins et al. in “Antimicrobial Agents and Chemotherapy,” Vol. 16, pages 710-718 (1979). […] 25 microliters radioactive (0.5 microCi) [2,8-^3H] adenosine. The microtitration plates were incubated in a candle jar for an additional 18 hours, at 37° C.
(§5) As the malaria parasite grows ^3H-adenosine is metabolized and incorporates into polymeric RNA and DNA. The labeled polymers are trapped on glass fiber filters and unincorporated material is washed away. In the absence of drug there is 100% incorporation of the labeled material. When drugs interfere (directly or indirectly), an inhibitory dose of 50% (IC50) can be calculated. The experiments were repeated three times except where noted. Statistical analysis was done using Student's T-test for significance. Van Kyke et al. “Exp. Parasitol,” Vol. 64, pages 418-423 (1987).
(§6) The test procedure was basically the same as outlined above.

[2] = test system: CQ-sensitive (FCMSU1/Sudan) strain of P. falciparum; test: 3H-adenosine incorporation, chloroquine-sensitive P. falciparum; type: cell-based
Method: as §1, §2, §3, §4, §5, §6

DX20 tumor = test: tumor measurements in nude mice bearing the DX20 tumor; type: in vivo; design: unit not given here
Method: (See FIG. 6). Tumor size was calculated using the formula (4 Pi/3) X*Y*2Z.
The study was done with 3-4 week old male balb-C nude mice. The animals were injected with DX20 1×10^7 cells.

DX20 cancer cells = test: modified MTT assay, drug sensitivity of DX20 cells; type: cell-based, human; details: DX20 cells
Excerpt: The MES-SA/DX20 cell line was established according to the development methods of Sikic et al., Resistance to Antineoplastic Drugs, Chap. 3, CRC Press, Ed. David Kessel, pp. 37-47 (1989). In vitro drug sensitivity testing consisted of two assay models, the modified MTT assay (Mossman, J. Immunolog. Methods, Vol. 65, pp. 55-63, 1983) and the colonogenic assay. In addition to this, the combinations were investigated in vivo in nude mice bearing the DX20 cell line. The MTT assay was chosen because of its practical advantages in large-scale screening. The assay involved cellular conversion of tetrazolium salt to a colored formazan serving as a measurement of cell viability.
In a given experiment, culture media, 50 microliters, containing 8,000-25,000 cells, depending on the proliferation rate of the cell line, was pipetted into each well of several 96-well microtiter plates. The cells were allowed to attach overnight. […] The cytotoxic drug, also at a concentration below that previously established as an IC50, was then added at decreasing concentrations by 25% to several half plate sections. The cells were allowed to grown for 72 hours. 100 microliters of media was then removed and 25 microliters of 5 mg/ml MTT (Sigma, St. Louis, Mo.) in phosphate buffered saline was added to each well. The plates were kept in an incubator at 37° C. and 5% CO2. After 2-3 hours of incubation, the extraction buffer containing 20% w/v SDS and 50% DMF was added and the plates again incubated overnight. The plates were read at a test wavelength of 570 nm on a multiwell spectrophotometer (Model MR 700, Dynatech Laboratories, Alexandria, Va.). Each drug combination was tested in triplicate. Percent survival was defined as percent of optical density (OD) of the drug-treated wells to that of the control detected by the spectrophotometer.
The in vitro drug sensitivity testing of ethyl fangchinoline consisted of two assay models, the modified MTT (Mossman 1983) and a colony formation assay in which a direct measure was taken by quantitation of colony formation. The MTT assay was chosen because of its practical advantages in large scale screening. The assay involves cellular conversion of tetrozolium salt to a colored formazan serving as a measurement of cell viability.
Two human cell lines were chosen as the primary targets of study in reversing multiple-drug resistance. The MES-SA, a sarcoma, and its resistant subline, DX-20, were kindly donated by Dr. B. Sikic (U of Stanford, Stanford, Calif.). The A2780, an ovarian cancer, and its resistant subline, A2780-ad10, were provided by Roswell Park Memorial Inst. (Buffalo, N.Y.).
Culture media, 50 ul containing 8,000 to 25,000 cells depending on the proliferation rate of the line, was pipetted into each of 96 wells in a flat bottom tissue plate. The cells were incubated overnight to allow adherence. One hundred ul of ethyl fangchinoline, at a concentration below that previously established as an independent IC50, was added to each experimental well. […] The plates were then incubated for 72 hours before MTT was added and the analysis of O.D. values interpreted by a multi-plate scanner (MR700, Dynatech).

[3] = test system: multidrug resistant human cancer (DX20); type: in vivo, mice; details: d-tetrandrine 0.5, 1, 1.5 mg injections; doxorubicin 5.5 mg per kg; about one month
Method: It is only important that they be administered sufficiently close together that the cancer is exposed to both simultaneously. For example, nude mice infected with a multidrug resistant human cancer were given 0.5 mg, 1 mg and 1.5 mg respectively in three separate injections, 72 hours apart.

[4] = test system: resistant (K562-R7) cancel cells; test: doxorubicin fluorescence test by flow cytometry; type: cell-based; details: FIG. 12; doxorubicin used alone
[5] = Table VII, chloroquine-resistant strain, drug alone, read-out: IC50 R
[6] = Table VII, chloroquine-sensitive strain, drug alone, read-out: IC50 S
[7] = Plasmodium falciparum, read-out: IC50 R
[8] = Plasmodium falciparum, read-out: IC50 S
[9] = Plasmodium falciparum, read-out: IC50 DRUG COMBINATION TT(1.0 uM) CQ(0.3 uM)
[10] = Plasmodium falciparum, read-out: IC50 DRUG COMBINATION TT(2.0 uM) CQ(0.2 uM)
[11] = Plasmodium falciparum, read-out: IC50 DRUG COMBINATION TT(3.0 uM) CQ(0.1 uM)
[12] = Plasmodium falciparum, read-out: IC50 SINGLE DRUG
[13] = Day 7 Prior to Treatment (baseline)
[14] = Day 24 After Treatment, d-tetrandrine days 6, 8, 10, doxorubicin 5.5 mg/kg day 12

Compound: COc1cc2c3cc1Oc1c(OC)c(OC)cc4c1[C@@H](Cc1ccc(O)c(c1)Oc1ccc(cc1)C[C@@H]3N(C)CC2)N(C)CC4 [BB, berbamine]
Ratio (S/R) [1]: 2.7
IC50 [1, 5]: 190 nM
IC50 [2, 6]: 460 nM

Compound: COc1ccc2cc1Oc1ccc(cc1)C[C@H]1c3c(cc4c(c3Oc3cc5c(cc3OC)CCN(C)[C@@H]5C2)OCO4)CCN1C [CE, cepharanthine]
Ratio (S/R) [1]: 1.1
IC50 [1, 7]: 940 nM
IC50 [2, 8]: 1000 nM

Compound: CCN(CC)CCCC(C)Nc1ccnc2cc(Cl)ccc12 (stereo not shown) [CQ, chloroquine]
lowering of the IC50 of chloroquine ([1]; 3.0 micromolar d-tetrandrine added to 0.1 micromolar chloroquine): 43 Fold
IC50 [1, 9]: 23.8 ± 4.1 nM
IC50 [1, 10]: 8 ± 1.6 nM
IC50 [1, 11]: 4.2 ± 0.3 nM
IC50 [1, 12]: 186 ± 4.9 nM
IC50 [2, 9]: 16.5 ± 2.1 nM
IC50 [2, 10]: 11.4 ± 2.3 nM
IC50 [2, 11]: 7.4 ± 1.3 nM
IC50 [2, 12]: 26.7 ± 3.8 nM

Compound: COc1ccc2cc1Oc1ccc(cc1)C[C@H]1c3cc(c(OC)cc3CCN1C)Oc1c(OC)c(OC)c(OC)c3c1[C@H](C2)N(C)CC3 [HE, hernandezine]
Ratio (S/R) [1]: 2.8
IC50 [1, 5]: 130 nM
IC50 [2, 6]: 370 nM

Compound: COc1ccc2cc1Oc1ccc(cc1)C[C@@H]1c3cc(c(OC)cc3CCN1C)Oc1c(OC)c(OC)cc3c1[C@H](C2)N(C)CC3 [IT, isotetrandrine]
IC50 [1, 5]: 140 nM
IC50 [2, 6]: 480 nM

Compound: COc1cc(C[C@H]2c3cc(OC)c(OC)c(OC)c3CCN2C)c(Oc2cc3c(cc2OC)-c2c(OC)c(OC)c(OC)c4c2[C@H](C3)N(C)CC4)cc1OC [ME, methoxadiantifoline]
Ratio (S/R) [1]: 5.5
IC50 [1, 7]: 970 nM
effectiveness against resistant versus sensitive malarial strain ([1]; conclusion from Table VII): substantially more effective against the chloroquine resistant malarial strain than against the chloroquine sensitive malarial strain
IC50 [2, 8]: 5300 nM

Compound: COc1cc2c3cc1Oc1c(O)c(OC)cc4c1[C@@H](Cc1ccc(O)c(c1)Oc1ccc(cc1)C[C@@H]3N(C)CC2)N(C)CC4 [OB, obamegine]
Ratio (S/R) [1]: 1.5
IC50 [1, 5]: 480 nM
IC50 [2, 6]: 660 nM

Compound: COc1ccc2cc1Oc1ccc(cc1)C[C@@H]1c3cc(c(OC)cc3CCN1C)Oc1c(OC)c(OC)cc3c1[C@@H](C2)N(C)CC3 [PH, phacanthine]
IC50 [1, 5]: 500 nM
IC50 [2, 6]: 600 nM

Compound: COc1cc2c3cc1Oc1c(OC)c(OC)cc4c1[C@@H](Cc1ccc(O)c(c1)Oc1ccc(cc1)C[C@H]3N(C)CC2)N(C)CC4 [PY, pycnamine]
Ratio (S/R) [1]: 0.9
IC50 [1, 5]: 420 nM
IC50 [2, 6]: 380 nM

Compound: C[C@@H]1CC[C@H]2[C@@H](C)C(=O)O[C@@H]3O[C@@]4(C)CC[C@@H]1[C@]32OO4 [QHS, qinghaosu]
IC50 ([1]; R STRAIN, TT/QHS 10:1, mean ± S.D, read-out: IC50 DRUG COMBINATION TT(2.0 uM) QHS(0.2 uM)): 7.2 ± 1.4 nM
IC50 ([1]; Table IV, R STRAIN, mean ± S.D, read-out: IC50 SINGLE DRUG): 47.8 ± 14.5 nM
IC50 ([1]; read-out: IC50 DRUG COMBINATION TT(1.0 uM) QHS(0.3 uM), R STRAIN, TT/QHS 10:3, mean ± S.D): 17.9 ± 4.1 nM
IC50 ([1]; read-out: IC50 DRUG COMBINATION TT(3.0 uM) QHS(0.1 uM), R STRAIN, TT/QHS 30:1, mean ± S.D): 4.6 ± 1.4 nM
IC50 ([2]; S STRAIN, TT/QHS 10:1, mean ± S.D, read-out: IC50 DRUG COMBINATION TT(2.0 uM) QHS(0.2 uM)): 11.4 ± 0.6 nM
IC50 ([2]; Table IV, S STRAIN, mean ± S.D, read-out: IC50 SINGLE DRUG): 36.7 ± 4.7 nM
IC50 ([2]; read-out: IC50 DRUG COMBINATION TT(1.0 uM) QHS(0.3 uM), S STRAIN, TT/QHS 10:3, mean ± S.D): 21.6 ± 2.7 nM
IC50 ([2]; read-out: IC50 DRUG COMBINATION TT(3.0 uM) QHS(0.1 uM), S STRAIN, TT/QHS 30:1, mean ± S.D): 7.3 ± 1.2 nM

Compound: COc1ccc2cc1Oc1ccc(cc1)C[C@H]1c3cc(c(OC)cc3CCN1C)Oc1c(O)c(OC)cc3c1[C@H](C2)N(C)CC3 [TA, fangchinoline]
Ratio (S/R) [1]: 1.2
IC50 [1, 5]: 220 nM
IC50 [2, 6]: 260 nM

Compound: COc1cc(C[C@H]2c3cc(OC)c(OC)cc3CCN2C)c(Oc2cc3c(cc2OC)-c2c(OC)c(OC)cc4c2[C@H](C3)N(C)CC4)cc1OC [TH, thalicarpine]
Ratio (S/R) [1]: 1.3
IC50 ([1]; Plasmodium falciparum, Table VII, chloroquine-resistant strain, drug alone, read-out: IC50 R): 1300 nM
IC50 ([2]; Plasmodium falciparum, Table VII, chloroquine-sensitive strain, drug alone, read-out: IC50 S): 1700 nM

IC50 (DX20 cancer cells; Homo sapiens, d-tetrandrine 2 × 10^−7 molar, read-out: IC50 doxorubicin in d-tetrandrine): 660 nM
IC50 (DX20 cancer cells; Homo sapiens, d-tetrandrine 4 × 10^−7 molar, read-out: IC50 doxorubicin in d-tetrandrine): 360 nM
IC50 (DX20 cancer cells; Homo sapiens, ethyl fangchinoline 1 × 10^−6 molar, read-out: IC50 doxorubicin in ethyl fangchinoline): 480 nM
IC50 (DX20 cancer cells; Homo sapiens, ethyl fangchinoline 2 × 10^−7 molar, read-out: IC50 doxorubicin in ethyl fangchinoline): 470 nM
IC50 (DX20 cancer cells; Homo sapiens, ethyl fangchinoline 4 × 10^−7 molar, read-out: IC50 doxorubicin in ethyl fangchinoline): 160 nM
IC50 (DX20 cancer cells; Homo sapiens, single agent, read-out: IC50 alone): 5400 nM
Compound: COc1cccc2c1C(=O)c1c(O)c3c(c(O)c1C2=O)C[C@@](O)(C(=O)CO)C[C@@H]3O[C@H]1C[C@H](N)[C@H](O)[C@H](C)O1 [doxorubicin]
Tumor Measurements Depth (DX20 tumor; [13]): 1.25
Tumor Measurements Length (DX20 tumor; [13]): 3.50
Tumor Measurements Width (DX20 tumor; [13]): 3.87
Tumor Measurements Depth (DX20 tumor; [14]): 21.50
Tumor Measurements Length (DX20 tumor; [14]): 24.50
Tumor Measurements Width (DX20 tumor; [14]): 19.10
tumor outcome [3]: very large tumors which were unabated
doxorubicin concentration (fluorescence) in resistant versus sensitive cells [4]: lower concentration of doxorubicin than does a sensitive cancer

Compound: cycleanine
Ratio (S/R) [1]: 0.8
IC50 [1, 5]: 4200 nM
IC50 [2, 6]: 3200 nM

Compound: ethyl fangchinoline
IC50 (DX20 cancer cells; single agent, read-out: IC50 alone): 6500 nM
